{"source": "patent US20090062387A1", "about": "“METHOD OF PREVENTING NEPHROCALCINOSIS” (priority 2007, published 2009)", "tested_on": "Sprague-Dawley rats", "experiment": "Citrate in rats with ischemia/reperfusion injury or sham operation on a high phosphate diet with intermittent dehydration", "format": "in vivo, rat", "settings": "day 60", "experimental": "A total of 48 male and female Sprague-Dawley rats (150-200 g body weight at start of experiment) were divided in eight groups (A to H) containing 6 animals each (Table 1). On day 1 of the experiment groups A, B, E and F got 30 minutes of bilateral renal ischemia reperfusion injury, while control groups C, D, G and H were sham operated (12) (Table 1). The rats were given 48 hours to recover and BUN and serum creatinine levels were then determined.\nOn day 3 all groups (A to H) were put on a high phosphorus diet (NIH-07 diet, see reference #6) for 60 days. All groups were dehydrated for 8 hours once a week. While groups B, D, F and H received citrate (2% wt) in their drinking water, the other groups had access to regular tap water, except during periods of dehydration. As rats typically consume a daily average of 10 ml of water per 100 g of body weight, each rat of groups B, D, F and H received an approximate daily dosage of 2 g of citrate per kg of body weight.\nOn day 30 arterial blood samples were collected for pH, BUN and serum creatinine measurements.\nOn day 60 all animals were sacrificed. Arterial blood samples were collected for serum pH, phosphorus, BUN and creatinine measurements. Bladder urine samples were collected for pH measurements. Kidneys were longitudinally dissected, formalin fixed and paraffin embedded for generation of light microscopic sections. Additional paraffin embedded tissue sections were stained with “von Kossa” stain for calcium crystal identification and LM tissue sections were scored for acute tubular injury as described elsewhere.\nStatistically significant differences between experimental groups were determined using Bonferroni t-tests and analysis of variance."}
{"smiles": "O=C(O)CC(O)(CC(=O)O)C(=O)O", "note": "[citrate]", "values": [{"measurement": "Decrease of serum phosphorus levels", "setting": "all groups (male/female, I/R or sham), high phosphate diet, citrate in drinking water", "result": 30, "unit": "%"}, {"measurement": "Effect on serum pH", "setting": "all study groups", "result": "did not have a significant effect"}, {"measurement": "Effect on urine pH", "setting": "all study groups", "result": "did not have a significant effect"}, {"measurement": "Histology: tubular injury, casts and calcium phosphate crystals", "setting": "female I/R rats with citrate supplementation", "result": "focal tubular dilation but no casts and no calcium phosphate crystals"}, {"measurement": "Histology: tubular morphology", "setting": "female sham operated rats, without vs with citrate", "result": "no significant difference in tubular morphology"}, {"measurement": "Histology: morphologic changes of ATN", "setting": "male I/R rats with citrate supplementation", "result": "markedly reversed"}, {"measurement": "Serum BUN levels (renal function)", "setting": "male and female rats with I/R, high phosphate diet, citrate 2% wt in drinking water", "result": "returned BUN levels to near control values"}, {"measurement": "Histology: tubular injury and cast formation", "setting": "male sham operated rats with citrate supplementation", "result": "markedly decreased tubular injury and cast formation"}]}
